Source: patent US10844049B2, “GLP-1R agonists and uses thereof” (QILU REGOR THERAPEUTICS INC., priority 2018, dated 2020)

How the values were obtained:
[1] = Monkey oral pharmacokinetic (PK) study, aged, obese, and diabetic male monkeys; format: in vivo; conditions: Dose 2, non-naïve aged, obese, and diabetic male Macaca fascicularis monkeys
Procedure: (§1) Appropriate volumes of vehicles (e.g., 2% Tween 80 (v:v) and 0.5% MC (w:v) in saline or 0.5% MC (w:v) in water were then added into the mortar containing the ground compounds, and the mixture was then grinded with a pestle until a homogeneous paste was formed. Additional appropriate volumes of vehicles were added into the mortar containing each compound, and the mixture was grinded further with the pestle until a homogeneous suspension was obtained.
(§2) The rest of the vehicle was added to make up the final dosing volume of about 1 mg/mL or 2 mg/mL (i.e., final dosing volume of about 5 mL/kg), and the homogenous suspension was continuously stirred prior to and during the dosing.
(§3) Non-naïve Cynomolgus male monkeys (n=3/test article; sourced from Hainan Jingang Biotech Co., Ltd., Nayang Xmtan, Fucheng Town, Qiongshan District, Haikou City, Hainan Province, China); or non-naïve aged, obese, and diabetic male Macaca fascicularis monkeys (n=3/test article, Source: Kunming Biomed International Colony) were used in pre-clinical in vivo studies. All non-naïve Cynomolgus male monkeys were approximately 3 to 5 years old, weighed about 2.5-5 kg, and were within ±20% of the average body weight. All non-naïve aged, obese, and diabetic male Macaca fascicularis monkeys were approximately 12 to 20 years old, weighed about >8-12 kg.
(§4) All animals were fasted overnight before dosing, and the food were supplied approximately 4 hours post dose (with free access to water all the time).
(§5) Animals were restrained at designated time points for blood sampling. Approximately 500 μL of blood samples was taken via cephalic or saphenous vein into EDTA-K2 tubes. Blood samples were put on wet ice before centrifugation.
(§6) For oral administration (PO) of either Dose 1 or Dose 2: blood samples were collected at pre-dose, and at 15 min, 30 min, 1 hr, 2 hr, 4 hr, (6 hr for compounds 19 and 28 with cynomolgus monkeys only), 8 hr, 12 hr, and 24 hr post dose (i.e., 9 or 10 total time points for each compound at each dose).
(§7) The blood samples were centrifuged at approximately 2,000-4,000 rpm for about 10-15 minutes at 2-8′C, and each resulting plasma portion was then transferred into an individual tube.
(§8) LC-MS/MS methods were developed, and bioanalysis for the test articles in monkey plasma was performed according to the developed LC-MS/MS methods.
Undiluted plasma samples: An aliquot of 20-50 μL plasma sample was mixed with 200 μL of ACN or MeOH containing one of the internal standards (IS, e.g., Diclofenac or Terfenadine). […]
(§9) Pharmacokinetics parameters, including area under the curve (AUC0-t), maximum plasma concentration (Cmax), time to reach maximum plasma concentration (Tmax), oral bioavailability (F %), etc., were calculated using Phoenix software (Version 6.4) and non-compartment model.

[2] = Monkey oral pharmacokinetic (PK) study, non-naïve Cynomolgus male monkeys; format: in vivo
Procedure: as §1, §2, §3, §4, §5, §6, §7, §8
Undiluted plasma samples: An aliquot of 20-50 μL plasma sample was mixed with 200 μL of ACN or MeOH containing one of the internal standards (IS, e.g., Diclofenac or Terfenadine). The mixture was then vortexed for about 1-5 min, and centrifuged at about 4,000-5,800 rpm for about 10-15 min. An aliquot of 1 μL supernatant was used for LC-MS/MS analysis.
as §9

GLP1R = GLP1R (Homo sapiens, UniProt P43220); assay: GLP1R cAMP HTRF assay, HEK293/GLP-1R/CRE/Luc (HEK293T cells); format: cell-based; conditions: read-out: EC50
Chain of GLP1R (P43220 24-463): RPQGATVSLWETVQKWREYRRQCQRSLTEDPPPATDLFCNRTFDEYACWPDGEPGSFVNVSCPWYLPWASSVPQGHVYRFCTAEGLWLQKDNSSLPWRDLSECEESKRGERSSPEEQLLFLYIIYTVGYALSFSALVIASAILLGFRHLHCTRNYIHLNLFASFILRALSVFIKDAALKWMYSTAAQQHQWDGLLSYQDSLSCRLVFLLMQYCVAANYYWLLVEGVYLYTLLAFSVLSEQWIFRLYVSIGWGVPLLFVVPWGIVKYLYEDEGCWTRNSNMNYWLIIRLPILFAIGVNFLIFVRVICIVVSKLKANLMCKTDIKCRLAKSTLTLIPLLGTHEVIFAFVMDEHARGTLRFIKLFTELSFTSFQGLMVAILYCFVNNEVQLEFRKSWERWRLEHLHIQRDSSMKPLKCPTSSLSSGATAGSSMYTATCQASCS
Summary of the method: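 cAMP accumulation via HTRF after 30 min, 37 °C exposure of 1000 receptor-expressing cells/well to compound (0.5% DMSO final) in IBMX (500 μM)/0.1% BSA DPBS.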

[3] = male, cynomolgus monkey, plasma, oral, Dose 1

N#Cc1ccc(COc2cccc(C3=CCN(Cc4nc5ccc(C(=O)O)cc5n4C[C@@H]4CCO4)CC3)n2)c(F)c1 [Compound 19, (S)-2-((4-(6-(4-cyano-2-fluorobenzyloxy)pyridin-2-yl)-5,6-dihydropyridin-1(2H)-yl)methyl)-1-(oxetan-2-ylmethyl)-1 h-benzo[d]imidazole-6-carboxylic add]
AUC0-24 h [1]: 2470 Arbitrary units
Cmax [1]: 413 Arbitrary unit
Tmax ([1]; cynomolgus monkey, plasma): 8.8 h
bioavailability ([1]; cynomolgus monkey, plasma): 15.5%
plasma concentration-time profile ([2]; PO, over about 24 hours after oral dosing): sustained at a more constant level
Tmax [2, 3]: 2.7 h
bioavailability [2, 3]: 10.8%
AUC0-24 h ([2]; oral, Dose 1): 1130 Arbitrary units
Cmax ([2]; oral, Dose 1): 125 Arbitrary unit
EC50 (GLP1R): ≤ 15 nM
